Experiment [1] addresses T1, Glycogen synthase kinase-3 beta (Homo sapiens, UniProt P49841). The experiment is described as follows: Reversible inhibition of human recombinant GSK3beta using GS2 as substrate after 10 mins by Glow type luminescence analysis.
Target sequence in this assay (P49841 whole entry, looked up): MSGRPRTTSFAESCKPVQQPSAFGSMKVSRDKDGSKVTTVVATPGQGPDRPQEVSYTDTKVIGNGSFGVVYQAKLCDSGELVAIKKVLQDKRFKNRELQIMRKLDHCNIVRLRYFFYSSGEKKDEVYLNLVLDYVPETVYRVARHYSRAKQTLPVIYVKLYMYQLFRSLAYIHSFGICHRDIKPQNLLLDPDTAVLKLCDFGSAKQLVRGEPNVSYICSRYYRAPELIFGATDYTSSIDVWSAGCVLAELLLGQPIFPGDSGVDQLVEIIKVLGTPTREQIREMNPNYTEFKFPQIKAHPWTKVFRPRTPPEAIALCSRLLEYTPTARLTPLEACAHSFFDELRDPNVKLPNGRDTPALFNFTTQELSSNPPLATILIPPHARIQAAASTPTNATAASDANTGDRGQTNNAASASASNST
Experiment [2] deals with T1, Glycogen synthase kinase-3 beta. The experiment is described as follows: Non-competitive inhibition of human recombinant GSK3beta using GS2 as substrate after 10 mins by Glow type luminescence analysis in presence of 1 to 50 uM ATP.
Target sequence in this assay (P49841 whole entry, looked up): as above
For experiment [3] the target is unchanged. The experiment is described as follows: Inhibition of human recombinant GSK3beta incubated for 30 mins by Kinase Glo luminescent kinase assay. (In general: In Kinase-Glo more light means more ATP remaining.)
Target sequence in this assay (P49841 whole entry): as the sequence (P49841 whole entry, looked up) above
The target is the same in experiment [4]. The experiment is described as follows: Non-competitive inhibition of human recombinant GSK3beta using GS2 as substrate after 10 mins by Glow type luminescence analysis in presence of 1 uM ATP.
Target sequence in this assay (P49841 whole entry, looked up): as above
Experiment [5] shares this target. Description: Non-competitive inhibition of human recombinant GSK3beta using GS2 as substrate after 10 mins by Glow type luminescence analysis.
Target sequence in this assay (P49841 whole entry, looked up): as above

The source made the active and inactive calls. The calls are words filed in the database; no cut-off is given here.

`CCCCCCCCCCCC(=O)NNC(=O)c1c(O)c2ccccc2n(CC)c1=O`: the inhibition result in experiment [1], in experiment [2], in experiment [4] and in experiment [5] was “Active” in each case. Besides, the IC50 in experiment [3] was 3.01 µM.

The term IC50 denotes the concentration that gives 50% inhibition.

The values are drawn from ChEMBL document CHEMBL2034862, “Exploring the binding sites of glycogen synthase kinase 3. Identification and characterization of allosteric modulation cavities” (J Med Chem, 2011).
